Results as given in patent US20210317092A1 (BAYER PHARMA AKTIENGESELLSCHAFT, priority 2016, published 2021).

target: T1, human Bradykinin B1 receptor (Homo sapiens, UniProt P46663); test: Calcium flux Assay (FLIPR) with recombinant CHO-K1 cells expressing human Bradykinin B1 receptor, in presence (hB1 IC50) or absence (hB1 free IC50) of 0.1% BSA; format: cell-based; settings: in absence of 0.1% BSA, read-out: hB1 free IC50
T1 construct: host or cells: CHO-K1
T1 sequence (P46663 1-353): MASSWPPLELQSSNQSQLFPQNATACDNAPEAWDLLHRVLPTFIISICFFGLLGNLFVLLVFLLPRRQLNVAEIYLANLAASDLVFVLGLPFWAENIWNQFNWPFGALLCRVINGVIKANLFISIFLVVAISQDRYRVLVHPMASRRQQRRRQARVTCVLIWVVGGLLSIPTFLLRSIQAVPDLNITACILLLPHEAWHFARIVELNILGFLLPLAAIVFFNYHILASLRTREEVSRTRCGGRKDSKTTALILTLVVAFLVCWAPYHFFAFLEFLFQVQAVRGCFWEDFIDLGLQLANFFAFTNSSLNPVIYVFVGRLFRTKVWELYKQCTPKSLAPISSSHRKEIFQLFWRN
Method: The potency to inhibit the Bradykinin B1 receptor was determined for the compounds of this invention in a cell-based fluorescent calcium-mobilisation assay. The assay measures the ability of test compounds to inhibit Bradykinin B1 receptor agonist-induced increase of intracellular free Ca^2+ in the cell line expressing Bradykinin B1 receptor. […] The change of the intracellular Ca^2+ concentration is monitored with a fluorescent plate reader FLIPR TETRA® (Molecular Devices).
Calcium flux Assays (FLIPR) with cells expressing human Bradykinin B1 receptor (hB1)
CHO-K1 cell line expressing human Bradykinin B1 receptor was purchased from Euroscreen (Gosselies, Belgium, with reference name hB1-D1). The cells were grown in Nutrient Mixture Ham's F12 (Sigma) containing 10% Foetal bovine serum (Sigma) and 400 μg/mL G418 (Sigma), 5 μg/mL puromycim (Sigma). […]
Cells were seeded in a volume of 50 μL in medium without antibiotics and incubated overnight in a humidified atmosphere with 5% CO2 at 37° C. […] The calcium indicator loaded cells were incubated at 37° C. for 2 hrs. Extracellular dye was then removed and each well was filled with 45 μL of assay buffer. Cell plates were kept in dark until used. Compound examples were assayed at 8 concentrations in triplicate. Serial 10-fold dilutions in 100% DMSO were made at a 100-times higher concentration than the final concentration, and then diluted 1:10 in assay buffer. 5 μL of each diluted compound was added to the well of cell plates (yielding final concentration with 1% DMSO), and incubated for 30 min at 28° C. before the addition of Bradykinin B1 receptor agonist on the FLIPR instrument.
A peptide antagonist Lys-(Des-Arg-Leu)-Bradykinin (Bachem, Brackley) at 20 µM was used to determine the full inhibition as control.
Peak fluorescence was used to determine the response to agonist obtained at each concentration of compound examples by the following equation:
% Response=100*(RFU(compound)−RFU(control))/(RFU(DMSO)−RFU(control)) • RFU means relative fluorescence units. • Control means full inhibition by the peptide antagonist Lys-(Des-Arg-Leu)-Bradykinin at 20 µM.
The response values were plotted against the logarithm of the compound concentrations. The compound examples were tested in triplicates per plate and mean values were plotted in Excel XLfit to determine IC50 values, percentage of maximal inhibition and the Hill slopes.

Row | Compound | IC50 [µM]
1 | 1-(3,4- difluorophenyl)- N-{3-(1H- tetrazol-5-yl)-4- [3-(2,2,2- trifluoroethyl)- 1H-pyrazol-1- yl]phenyl}cyclopro- panecarboxa- mide [Example 387] | 0.434
2 | 1-(3- chlorophenyl)- N-[3-(1H- tetrazol-5-yl)- 6′- (trifluoromethyl)- 2,3′-bipyridin- 5- yl]cyclopropane carboxamide [Example 217] | 0.516
3 | 1-[2-fluoro-4- (trifluoromethoxy)- phenyl]-N-{3- (1H-tetrazol-5- yl)-4-[3-(2,2,2- trifluoroethyl)- 1H-pyrazol-1- yl]phenyl}cyclopro- panecarboxa- mide [Example 390] | 0.014
4 | 1-[2-fluoro-4- (trifluoromethyl) phenyl]-N-[4- (4-isopropyl-1H- pyrazol-1-yl)-3- (1H-tetrazol-5- yl)phenyl]cyclopro- panecarboxa- mide [Example 399] | 0.00516
5 | COc1ccc(-c2ccc(NC(=O)C3(c4ccccc4F)CC3(C)C)cc2-c2nnn[nH]2)cc1OC (stereo not shown) [Example 8, N-[3′,4′-dimethoxy-2-(1H-tetrazol-5-yl)biphenyl-4-yl]-1-(2-fluorophenyl)-2,2-dimethylcyclo-propane-carboxamide] | 0.337
6 | COc1ccc(-c2ccc(NC(=O)C3(c4ccc(C(F)(F)F)cc4F)CC3)cc2-c2nnn[nH]2)cc1OC [Example 20, N-[3′,4′-dimethoxy-2-(1H-tetrazol-5-yl)biphenyl-4-yl]-1-[2-fluoro-4-(trifluoromethyl)phenyl] cyclopropane-carboxamide] | 0.0292
7 | COc1ccc(-c2ccc(NC(=O)C3(c4ccc(F)c(F)c4)CC3)cc2-c2nnn[nH]2)cc1OC [Example 25, 1-(3,4-difluorophenyl)-N-[3′,4′-dimethoxy-2-(1H-tetrazol-5-yl)biphenyl-4-yl]cyclopropane-carboxamide] | 0.0259

same assay, conditions: in presence of 0.1% BSA, read-out: hB1 IC50

Row | Compound | IC50 [µM]
8 | 1-(3- chlorophenyl)- N-[4′- (methoxymethyl)- 2-(1H- tetrazol-5- yl(biphenyl-4- yl]cyclopropane carboxamide [Example 123] | 0.645
9 | COc1ccc(-c2ccc(NC(=O)C3(c4ccccc4F)CC3)cc2-c2nnn[nH]2)cc1OC [Example 3, N-[3′,4′-dimethoxy-2-(1H-tetrazol-5-yl)biphenyl-4-yl]-1-(2-fluorophenyl) cyclopropane-carboxamide] | 0.0548
10 | COc1ccc(-c2ccc(NC(=O)C3(c4ccccc4OC(F)(F)F)CC3)cc2-c2nnn[nH]2)cc1OC [Example 4, N-[3′,4′-dimethoxy-2-(1H-tetrazol-5-yl)biphenyl-4-yl]-1-[2-(trifluoro-methoxy)phenyl] cyclopropane-carboxamide] | 0.158
11 | COc1ccc(-c2ccc(NC(=O)C3(c4ccccn4)CC3)cc2-c2nnn[nH]2)cc1OC [Example 9] | 0.66
12 | COc1ccc(-c2ccc(NC(=O)C3(c4cc(F)cc(F)c4)CC3)cc2-c2nnn[nH]2)cc1OC [Example 13, 1-(3,5-difluorophenyl)-N-[3′,4′-dimethoxy-2-(1H-tetrazol-5-yl)biphenyl-4-yl]cyclopropane carboxamide] | 0.0866
13 | COc1ccc(-c2ccc(NC(=O)C3(c4cc(F)cc(Cl)c4)CC3)cc2-c2nnn[nH]2)cc1OC [Example 15, 1-(3-chloro-5-fluorophenyl)-N-[3′,4′-dimethoxy-2-(1H-tetrazol-5-yl)biphenyl-4-yl]cyclopropane carboxamide] | 0.0409
14 | COc1ccc(C2(C(=O)Nc3ccc(-c4ccc(OC)c(OC)c4)c(-c4nnn[nH]4)c3)CC2)cc1F [Example 24, N-[3′,4′-dimethoxy-2-(1H-tetrazol-5-yl)biphenyl-4-yl]-1-(3-fluoro-4-methoxyphenyl) cyclopropane-carboxamide] | 0.232

Second part, the compound after the results:

Row | IC50 [µM] | Compound
15 | 1.35 | COc1ccc(-c2ccc(NC(=O)C3(C4CCC(C)CC4)CC3)cc2-c2nnn[nH]2)cc1 (mixture of isomers) [Example 114, N-[4′-methoxy-2-(1H-tetrazol-5-yl)biphenyl-4-yl]-1-(4-methylcyclo-hexyl) cyclopropane carboxamide]
16 | 0.122 | COc1ccc(-c2ccc(NC(=O)C3(C4CCC(C)CC4)CC3)cc2-c2nnn[nH]2)cc1OC (single isomer, unassigned) [Example 52, N-[3′,4′-dimethoxy-2-(1H-tetrazol-5-yl)biphenyl-4-yl]-1-(4-methylcyclohexyl) cyclopropane carboxamide]
17 | 1.2 | COc1ccc(-c2ccc(NC(=O)C3(C4CCC(C)CC4)CC3)cc2-c2nnn[nH]2)cc1 (single isomer, unassigned) [Example 113, N-[4′-methoxy-2-(1H-tetrazol-5-yl)biphenyl-4-yl]-1-(4-methylcyclo-hexyl) cyclopropane carboxamide]
18 | 0.0589 | COc1ccc(-c2ccc(NC(=O)C3(c4ccc(F)cc4F)CC3)cc2-c2nnn[nH]2)cc1OC [Example 2, 1-(2,4-difluorophenyl)-N-[3′,4′-dimethoxy-2-(1H-tetrazol-5-yl)biphenyl-4-yl]cyclopropane carboxamide]
19 | 1.51 | COc1ccc(-c2ccc(NC(=O)C3(c4ccc(C)cc4)CC3(C)C)cc2-c2nnn[nH]2)cc1OC (stereo not shown) [Example 5, N-[3′,4′-dimethoxy-2-(1H-tetrazol-5-yl)biphenyl-4-yl]-2,2-dimethyl-1-(4-methylpheny) cyclopropane carboxamide]
20 | 1.37 | COc1ccc(-c2ccc(NC(=O)C3(c4ccc(F)cc4)CC3(C)C)cc2-c2nnn[nH]2)cc1OC (stereo not shown) [Example 6]
21 | 1.35 | COc1ccc(-c2ccc(NC(=O)C3(c4ccccc4)CC3(C)C)cc2-c2nnn[nH]2)cc1OC (stereo not shown) [Example 7, N-[3′,4′-dimethoxy-2-(1H-tetrazol-5-yl)biphenyl-4-yl]-2,2-dimethyl-1-phenylcyclo-propane-carboxamide]
22 | 0.347 | COc1ccc(-c2ccc(NC(=O)C3(c4ccccc4F)CC3(C)C)cc2-c2nnn[nH]2)cc1OC (stereo not shown) [Example 8, N-[3′,4′-dimethoxy-2-(1H-tetrazol-5-yl)biphenyl-4-yl]-1-(2-fluorophenyl)-2,2-dimethylcyclo-propane-carboxamide]
23 | 0.0688 | COc1ccc(-c2ccc(NC(=O)C3(c4cccc(F)c4)CC3)cc2-c2nnn[nH]2)cc1OC [Example 10, N-[3′,4′-dimethoxy-2-(1H-tetrazol-5-yl)biphenyl-4-yl]-1-(3-fluorophenyl) cyclopropane-carboxamide]
24 | 0.043 | COc1ccc(-c2ccc(NC(=O)C3(c4ccc(F)cc4)CC3)cc2-c2nnn[nH]2)cc1OC [Example 11, N-[3′,4′-dimethoxy-2-(1H-tetrazol-5-yl)biphenyl-4-yl]-1-(4-fluorophenyl) cyclopropane-carboxamide]
25 | 0.101 | COc1ccc(-c2ccc(NC(=O)C3(c4ccc(F)c(Cl)c4)CC3)cc2-c2nnn[nH]2)cc1OC [Example 14, 1-(3-chloro-4-fluorophenyl)-N-[3′,4′-dimethoxy-2-(1H-tetrazol-5-yl)biphenyl-4-yl]cyclopropane carboxamide]
26 | 0.0429 | COc1ccc(-c2ccc(NC(=O)C3(c4ccc(OC(F)(F)F)cc4)CC3)cc2-c2nnn[nH]2)cc1OC [Example 19, N-[3′,4′-dimethoxy-2-(1H-tetrazol-5-yl)biphenyl-4-yl]-1-[4-(trifluoromethoxy)phenyl] cyclopropane-carboxamide]
27 | 0.0544 | COc1ccc(-c2ccc(NC(=O)C3(c4ccc(C(F)(F)F)cc4F)CC3)cc2-c2nnn[nH]2)cc1OC [Example 20, N-[3′,4′-dimethoxy-2-(1H-tetrazol-5-yl)biphenyl-4-yl]-1-[2-fluoro-4-(trifluoromethyl)phenyl] cyclopropane-carboxamide]
28 | 0.367 | COc1ccc(-c2ccc(NC(=O)C3(c4cc(F)ccc4F)CC3)cc2-c2nnn[nH]2)cc1OC [Example 21, 1-(2,5-difluorophenyl)-N-[3′,4′-dimethoxy-2-(1H-tetrazol-5-yl)biphenyl-4-yl]cyclopropane carboxamide]
29 | 0.212 | COc1ccc(-c2ccc(NC(=O)C3(c4cccc(OC(F)F)c4)CC3)cc2-c2nnn[nH]2)cc1OC [Example 22, 1-[3-(difluoromethoxy)phenyl]-N-[3′,4′-dimethoxy-2-(1H-tetrazol-5-yl)biphenyl-4-yl]cyclopropane carboxamide]
30 | 0.0574 | COc1ccc(-c2ccc(NC(=O)C3(c4ccc(F)c(F)c4)CC3)cc2-c2nnn[nH]2)cc1OC [Example 25, 1-(3,4-difluorophenyl)-N-[3′,4′-dimethoxy-2-(1H-tetrazol-5-yl)biphenyl-4-yl]cyclopropane-carboxamide]
31 | 0.0917 | COc1ccc(-c2ccc(NC(=O)C3(c4cccc(F)c4F)CC3)cc2-c2nnn[nH]2)cc1OC [Example 26, 1-(2,3-difluorophenyl)-N-[3′,4′-dimethoxy-2-(1H-tetrazol-5-yl)biphenyl-4-yl]cyclopropane carboxamide]
